Results as given in US9376492B2, “Treatment of cancer” (Asclepiumm Limited, priority 2009, dated 2016).
“Also recorded” adds a separate entry of the source.

Experiments:
[1] = tested on: human breast cancer MCF7 cells; assay: Cell invasion assay (Matrigel), MCF7; assay type: cell-based; conditions: human breast cancer MCF7 cells in Matrigel
Protocol: Cell Invasion Assay: Growth Factor-Reduced Matrigel™ Matrix (BD, Becton Dickinson Biosciences, Bedford, Mass., USA) was thawed in the fridge one day prior to its use. The Matrigel matrix was mixed by pre-cooled pipettes to homogeneity on ice. Four μl of the cell suspension (1×10^6 cells/ml) in standard medium without (Control) or with 1 μl different concentrations of antibody or peptide was mixed with 95 μl of Matrigel matrix in a cold Eppendorf tube. After thorough mixing using cooled pipettes, 30 μl of the cells in the Matrigel mixture was added to 48-well plates. The plates were incubated at 37° C. in a CO2 incubator for 1 h to polymerize the droplet mixtures. 250 μl of standard medium was added to cover the cell/Matrigel droplet and incubated for several days. Blindly-selected cell invasion images were recorded in four areas within a cell/Matrigel droplet by a Nikon 4500 Coolpix digital camera under the microscope.

MDCK cells = assay: Blocking EMT assay (HGF/SF-induced EMT); assay type: cell-based; conditions: 2.5 ng/ml HGF/SF, 24 h
Protocol: Blocking EMT Assay: Antibodies or peptides were added to 10% sub-confluent MDCK cells cultured in standard medium with 2.5 ng/ml HGF/SF in 96-well plates for 24 h. EMT was induced by HGF/SF in MDCK cells without any antibody or peptide treatment. The effects of different antibodies and peptides in blocking EMT were investigated by adding different concentrations of them to 10% sub-confluent MDCK cells cultured in standard medium with 2.5 ng/ml HGF/SF.

| Sequence | inhibition of cell invasion ability [1] | inhibition of EMT (MDCK cells) |
| --- | --- | --- |
| EELSAAHTLV (listed as Homo sapiens) [Peptide 7] | significantly inhibited | significantly blocked; also recorded: significantly inhibited |
| KINATDADEPNTLNSKISYR (listed as Homo sapiens) [Peptide 4] | significantly inhibited | significantly blocked; also recorded: significantly inhibited |
